One test concerns Staphylococcus. As to the kind of experiment: Antimicrobial activity against methicillin-resistant coagulase-negative Staphylococcus P1369 by microdilution method. It is filed as functional. (Broth dilution looks for growth in wells or tubes with falling amounts of substance.)
The subject of the next test is Bacillus thuringiensis. As to the kind of experiment: Antimicrobial activity against Bacillus thuringiensis AB93066 by microdilution method. It is filed as functional.
A further test concerns Micrococcus luteus. As to the kind of experiment: Antimicrobial activity against Micrococcus luteus AB93113 by microdilution method. It is filed as functional.
Test [1] has as its system Staphylococcus aureus. As to the kind of experiment: Antimicrobial activity against Staphylococcus aureus AB94004 by microdilution method. It is filed as functional.
Test [2] concerns Staphylococcus aureus. As to the kind of experiment: Antimicrobial activity against methicillin-resistant Staphylococcus aureus P1386 at 500 ug/ml after 9 hrs by time-kill analysis. It is filed as functional, organism-based.
For test [3], the system named is Staphylococcus aureus. Nature of the test: Antimicrobial activity against methicillin-resistant Staphylococcus aureus P1386 by microdilution method. Format: functional.
The test system of test [4] is Staphylococcus aureus. As to the kind of experiment: Antimicrobial activity against methicillin-resistant Staphylococcus aureus P1374 by microdilution method. It is filed as functional.
The test system of the next test is Bacillus subtilis. As to the kind of experiment: Antimicrobial activity against Bacillus subtilis AB91021 by microdilution method. It is filed as functional.
Test [5] deals with Staphylococcus epidermidis. As to the kind of experiment: Antimicrobial activity against penicillin-resistant Staphylococcus epidermidis P1389 by microdilution method. It is filed as functional.
In test [6] the test system is Staphylococcus epidermidis. As to the kind of experiment: Antimicrobial activity against penicillin-sensitive Staphylococcus epidermidis P1111 by microdilution method. It is filed as functional.
In the next test the test system is Pseudomonas aeruginosa. Nature of the test: Antimicrobial activity against Pseudomonas aeruginosa AB92037 by microdilution method. Format: functional.
For another test, the system named is Escherichia coli. As to the kind of experiment: Antimicrobial activity against Escherichia coli AB94012 by microdilution method. Format: functional.
Test [7] has as its system Staphylococcus aureus. As to the kind of experiment: Antimicrobial activity against methicillin-resistant Staphylococcus aureus P1386 at 200 ug/ml after 9 hrs by time-kill analysis. It is filed as functional, organism-based.

≈ marks a conversion by molar mass, not a printed value. Calls of active or inactive are those of the source. No cut-off for these calls is given here.

Usually MIC stands for the lowest concentration found to suppress growth. A high value points to a less susceptible organism. Turning to `CC1(C)S[C@@H]2[C@H](NC(=O)Cc3ccccc3)C(=O)N2[C@H]1C(=O)O` [PENICILLIN G], the MIC in the test with Staphylococcus was determined as 2000 µg/mL (≈ 5980 µM); with Bacillus thuringiensis it was 12.5 µg/mL (≈ 37.4 µM); in the test with Micrococcus luteus, 25 µg/mL (≈ 74.8 µM); against Staphylococcus aureus [1] it was 6 µg/mL (≈ 17.9 µM); in the test with Staphylococcus aureus [3], 1000 µg/mL (≈ 2990 µM); in the test with Staphylococcus aureus [4] it was 1000 µg/mL (≈ 2990 µM). In addition, the MIC in the test on Bacillus subtilis was determined as 50 µg/mL (≈ 150 µM); in [5] it was 1000 µg/mL (≈ 2990 µM); in test [6], 4 µg/mL (≈ 12 µM). Further, the result in the test on Staphylococcus aureus [2] was inactive.
Regarding `CO/N=C(\C(=O)N[C@@H]1C(=O)N2C(C(=O)O)=C(COC(C)=O)CS[C@H]12)c1csc(N)n1` [CEFOTAXIME], the MIC turned out to be 100 µg/mL (≈ 220 µM) in the test on Staphylococcus; 12.5 µg/mL (≈ 27.4 µM) with Bacillus thuringiensis; 3 µg/mL (≈ 6.59 µM) in the test on Micrococcus luteus; 3 µg/mL (≈ 6.59 µM) against Staphylococcus aureus [1]; 12.5 µg/mL (≈ 27.4 µM) in the test on Pseudomonas aeruginosa; 3 µg/mL (≈ 6.59 µM) in the test on Escherichia coli. In addition, the MIC against Staphylococcus aureus [3] was 400 µg/mL (≈ 878 µM); against Staphylococcus aureus [4] it was 400 µg/mL (≈ 878 µM); in the test with Bacillus subtilis, 50 µg/mL (≈ 110 µM); in test [5], 12.5 µg/mL (≈ 27.4 µM); in [6], 8 µg/mL (≈ 17.6 µM). Moreover, the outcome in the test on Staphylococcus aureus [7] was inactive.
`CN[C@H](CC(C)C)C(=O)N[C@H]1C(=O)N[C@@H](CC(N)=O)C(=O)N[C@H]2C(=O)N[C@H]3C(=O)N[C@H](C(=O)N[C@H](C(=O)O)c4cc(O)cc(O)c4-c4cc3ccc4O)[C@H](O)c3ccc(c(Cl)c3)Oc3cc2cc(c3O[C@@H]2O[C@H](CO)[C@@H](O)[C@H](O)[C@H]2O[C@H]2C[C@](C)(N)[C@H](O)[C@H](C)O2)Oc2ccc(cc2Cl)[C@H]1O` [VANCOMYCIN]: the MIC worked out at 4 µg/mL (≈ 2.76 µM) in the test on Staphylococcus, 3 µg/mL (≈ 2.07 µM) against Bacillus thuringiensis, 3 µg/mL (≈ 2.07 µM) in the test with Micrococcus luteus and 3 µg/mL (≈ 2.07 µM) in the test on Bacillus subtilis.

The values above are taken from ChEMBL document CHEMBL1649537, “Imcroporin, a new cationic antimicrobial peptide from the venom of the scorpion Isometrus maculates” (2009).
